# Assay results as given in patent publication US10487119B2, “Peptides for diagnosis and treatment of cancer” (National Taiwan University, priority 2013, dated 2019).
# Where two headings read alike, the source gives them in different places. No end group written: not given here.
# Tests used:
# NPC-TW07 cells = test: Flow cytometry analysis of FITC-peptide binding to cells; type: cell-based
# Text: (§1) The cultured cells, including nasopharyngeal carcinoma (NPC-TW01 and NPC-TW07), non-small cell lung cancer (H1299 and A549), neuroblastoma (Be2C), breast cancer (MB157) and immortalized embryonic renal epithelia (TEKID) ([…]) are subjected to flow cytometer (FACSCAN, BD Co., U.S.A.) after the FITC (Fluorescein isothiocyanate)-targeted peptide SEQ ID NO:1 treatment. Simultaneously, FITC-control peptide, FITC-biotin-targeted peptide SEQ ID NO: 1 (B-P) and FITC-biotin-control peptide (B-C-P) are used for flow cytometry comparison.
# [1] = tested on: non-small cell lung cancer (H1299) cells; test: as above; type: cell-based
# Text: as §1
# [2] = tested on: non-small cell lung cancer (A549) cells; test: as above; type: cell-based
# Text: as §1
# [3] = tested on: neuroblastoma (Be2C) cells; test: as above; type: cell-based
# Text: as §1
# [4] = tested on: breast cancer (MB157) cells; test: as above; type: cell-based
# Text: as §1
# NPC-TW01 cells = test: as above; type: cell-based
# Text: as §1
# [5] = tested on: immortalized embryonic renal cell line (293T); test: as above; type: cell-based, human; conditions: 293T immortalized renal cell line
# Text: as §1
# [6] = tested on: hepatoma and pancreatic cancer cells; test: FITC-peptide binding to hepatoma and pancreatic cancer cells; type: cell-based
# [7] = tested on: pancreatic cancer (Pan 1) cell line; test: Prussian blue staining of pancreatic cancer cell line; type: cell-based
# Experimental: Blood monocytes, hepatoma (Hep G2) and pancreatic cancer (Pan 1) cell lines are incubated with P-Dex-Fe3O4 nanoparticle for 1.0 hr and 37° C. for 4 hr, and then are stained with Prussian blue reagent.
# NPC cells (NPC-TW01) = test: Prussian blue staining of cultured NPC cells incubated with peptide-linked iron oxide nanoparticles; type: cell-based; conditions: 4° C. for 1.0 hr and 37° C. for 4 hr
# Text: The dextran coated-Fe3O4 is linked with the targeted peptide SEQ ID NO:1 or the FITC-targeted peptide SEQ ID NO:1 by the MagQu Company. Dextran is used as the hydrophilic surfactant layer. The iron oxide fluid with the desired concentration is available by diluting the highly concentrated iron oxide fluid with a pH 7.4 phosphate buffered saline (PBS) solution. […] Cells are washed in a 2% fetal bovine serum in PBS. After fixation, the binding ability between the targeted peptide SEQ ID NO: 1 and tumor cells can be observed by Prussian blue reagent; each iron oxide nanoparticle is bound by approximately above 10 targeted peptides.
# [8] = tested on: normal peripheral blood cells; test: Prussian blue staining of normal peripheral blood smears; type: cell-based, human
# Text: The present invention prepared L-peptide-linked dextran-coated iron oxide nanoparticles, such as, L-P-Fe3O4, SP-94-P-Fe3O4, PC5-52-P-Fe3O4 and control-peptide-Fe3O4 nanoparticles (C-P-Fe3O4). The dextran coated-Fe3O4 nanoparticles (Dex-Fe3O4) were purchased from MAGQU Company. This company conjugates L-peptide, SP-94-peptide and PC5-52-peptide, separately, to the Dex-Fe3O4 nanoparticles. Each Dex-Fe3O4 can be linked with more than 10 peptide molecules. For localization of the peptide targeted protein in HepG2 and Huh-7 cell lines, the present invention first have to check whether our peptide can also bind to the mononuclear cells in the human peripheral blood. The mononuclear cells were obtained from the normal personal blood using Histopaque-1077 solution (SIGMA, St, Louis, Mo. U.S.A).
# (§2) After the blood smears were fixed by formaldehyde, they were treated with or without Triton X-100 detergent and then stained with L-P-Fe3O4, SP-94-P-Fe3O4 or Control-P-Fe3O4 (C-P-Fe3O4) (40 μg/mL) and subjected to Prussian blue reaction with nuclear fast red contrast staining. Using the similar peptide histochemical procedure, the HepG2 and Huh-7 tumor cells were also stained. But in addition to the L-P-Fe3O4 and SP-94-P-Fe3O4, a ratio of 1:1 of L-P-Fe3O4: SP-94-P-Fe3O4 were mixed and used to stain the HepG2 and Huh-7 tumor cells.
# [9] = tested on: breast cancer cells (MDA-MB-231); test: Prussian blue staining of breast cancer cell line; type: cell-based
# [10] = tested on: pancreatic cancer sections; test: Peptide histochemical localization in pancreatic surgical specimens; parameters: species or system human; conditions: formalin-fixed paraffin-embedded
# Text: Peptide histochemical diagnosis of the present invention can be applied to pancreatic surgical specimens, ether the targeted peptide is SEQ ID NO: 1 or SEQ ID NO: 2.
# [11] = tested on: hepatoma (Hep G2) cell line; test: Prussian blue staining of hepatoma cell line; type: cell-based
# Text: In addition to the targeted peptide SEQ ID NO: 1, the present invention also provides another targeted peptide SEQ ID NO: 2 for synthesizing the targeted peptide SEQ ID NO: 2-linked dextran-coated iron oxide nanoparticles.
# [12] = tested on: breast cancer surgical specimens; test: Peptide histochemical localization in breast cancer surgical specimens; parameters: species or system human
# Experimental: (§3) The sections are incubated overnight at 4° C. with the P-Dex-Fe3O4 nanoparticles, and washed with PBS, then are incubated for 15-30 min with routine Prussian blue reagent (containing 2% potassium ferricyanide (Sigma-aldrich.com. St Louis Mo., U.S.A.) and 0.5 N HCl in dH2O=1:1), followed by counterstaining for 5 min with nuclear fast red solution, washed with water, and mounted with 50% glycerol directly or with balsam after alcohol dehydration.
# blood monocytes = test: Prussian blue staining of blood monocytes; type: cell-based; conditions: 1.0 hr and 37° C. for 4 hr
# [13] = tested on: hepatocellular carcinoma surgical specimens; test: Peptide histochemistry of hepatocellular carcinoma (HCC) surgical specimens; parameters: species or system human; conditions: for Prussian blue staining pattern in HCC surgical sections: 40 μg per mL, overnight; for Average percentage of stained tumor cell number 25-50% / Average percentage of stained tumor cell number <25% / Average percentage of stained tumor cell number >75%: N = 30, ten HPF (x 400)
# Experimental: For hepatocellular carcinoma surgical specimens, after the deparaffinization of the paraffin-embedded sections and retrieval of targeted protein molecule, as part of the routine immunohistochemistry described as above-mentioned, the sections were incubated overnight with (a) The L-P-Fe3O4 (40 μg per mL); (b) SP-94-P-Fe3O4 (40 μg/mL); (c) one to one ratio of (a) and (b), then with routine Prussian blue reagents, followed by a counter staining for 2 min with nuclear fast red solution. The present invention has used this method to examine 30 hepatocellular carcinoma surgical specimens without difficulty. To count the positive stained cell number of the Prussian blue stained cells in each paraffin section, which are counted 10 high power fields (×400).
# Huh-7 tumor cells = test: Prussian blue staining of formalin-fixed, Triton X-100 treated HCC cell line; type: cell-based
# Experimental: as §2
# HepG2 tumor cells = test: as above; type: cell-based
# Experimental: as §2
# [14] = tested on: hepatoma surgical specimens; test: Peptide histochemical localization in hepatoma surgical specimens; parameters: species or system human; conditions: for Prussian blue reaction product in tumor cells of hepatoma sections: formalin-fixed paraffin-embedded
# Text: Peptide histochemical diagnosis of the present invention can be applied to hepatoma surgical specimens.
# NPC biopsy specimens = test: Peptide histochemical localization in formalin-fixed paraffin-embedded NPC biopsy specimens; parameters: species or system human; conditions: overnight at 4° C.
# Experimental: as §3
# HepG2 xenografts = test: Peptide targeted chemotherapy of mice bearing HepG2 xenografts; type: in vivo; conditions: SCID mice bearing hepatoma xenograft
# Experimental: For the peptide targeted chemotherapy, 40 male SCID mice were transplanted with […] HepG2 cells into their right thigh subcutaneously; after 10 days, solid xenografts measuring approximately 0.8 cm in diameter were found in each mouse, then they were divided into four groups (each group included 10 mice). The first group was injected with PBS; the second and third groups were injected either with L-P-L-D or PC5-52-P-L-D, separately. Each dose contained 2 mg doxorubicin/kg of mouse body weight. The fourth group mice were injected with L-P-L-D (1 mg doxorubicin/kg) mixed with PC5-52-P-L-D (1 mg doxorubicin/kg). All doses were injected through the tail vein, once per week, for a total of 4 injections, and all animals were sacrificed at day 35. The body weight and tumor size were measured weekly. All animals were examined by routine autopsy. The xenograft tumors and all visceral organs were examined by histopathological sections after stained by hematoxylin and eosin. The pegylated peptide was linked to L-D in our laboratory according to our previously published methods (Cancer Res. 64:8002-8008, Nov. 1, 2004). For comparison, another animal experiment was performed. In the later experiment, the present invention used NSG (NOD-SCID immunodeficiency gamma strain animals); the experiments were totally similar to the NOD SCID mice case. […]
# NPC cells = test: Addition of targeted peptide to NPC cell culture medium; type: cell-based; conditions: 1 mg/mL in NPC cells culture medium, sustained to 10 days
# Text: Apparently, this finding indicate that the protein bound by the targeted peptide is not a receptor protein or the like thereof.
substance,measurement,setting,value
FITC-linked control peptide SEQ ID NO: 3: FITC-labelled control peptide (RLLDTNRPLGGG; also: FITC label) [reference compound],binding to NPC-TW07 cells (flow cytometry histogram),NPC-TW07 cells,very weak binding activity
FITC-targeted peptide SEQ ID NO: 1: fluorescein isothiocyanate-labelled targeted peptide SEQ ID NO:1 (RLLDTNRPLLPY; also: FITC label),binding to H1299 cells (flow cytometry),[1],a clear binding peak
same,binding to A549 cells (flow cytometry),[2],a clear binding peak
same,binding to NPC-TW07 cells (flow cytometry histogram),NPC-TW07 cells,a clear peak is found in the histogram
same,binding to Be2C cells (flow cytometry),[3],a clear binding peak
same,binding to MB157 cells (flow cytometry),[4],a clear binding peak
same,binding to NPC-TW01 cells (flow cytometry),NPC-TW01 cells,a clear binding peak
same,binding to 293T cells (flow cytometry),[5],without showing any binding phenomenon
FITC-targeted peptide SEQ ID NO: 2: FITC-labelled targeted peptide SEQ ID NO: 2 (SFSIIHTPILPL; also: FITC label),binding to hepatoma and pancreatic cancer cells,[6],can be used to bind to hepatoma and pancreatic cancer cells
P-Dex-Fe3O4 (RLLDTNRPLLPY),Prussian blue reaction product in pancreatic cancer cell line,[7],show blue reaction products
same,Prussian blue reaction product in NPC cells,NPC cells (NPC-TW01),the reaction products are seen in the cytoplasm of a majority of the tumor cells
same,Prussian blue reaction product in fixed blood smears treated with Triton X-100,[8]; with Triton X-100,the mononuclear cells but not red blood cells showed blue reaction product in their cytoplasm
same,Prussian blue reaction product in blood smears fixed in formalin,[8]; without Triton X-100,no reaction product was seen
same,Prussian blue reaction product in breast cancer cells,[9],the reaction products appear in most of the cytoplasm of breast cancer cells
same,Prussian blue reaction product in pancreatic cancer sections,[10],all show the reaction products
same,Prussian blue reaction product in hepatoma cell line,[11],show blue reaction products
same,Prussian blue reaction product in hepatoma cell line,[11]; listed as targeted peptide SEQ ID NO:1-linked dextran-coated iron oxide nanoparticles,blue reaction product
same,Prussian blue reaction product in tumor cells from breast cancer metastatic axillary lymph nodes,[12],reveal blue reaction product
same,Prussian blue reaction product in stromal regions in tumor nests,[12]; breast cancer sections,no blue reaction product
same,Prussian blue reaction product in breast cancer sections,"[12]; formalin-fixed paraffin-embedded, specimens more than 1 cm in diameter",show the Prussian blue reaction products
same,Prussian blue reaction product in blood monocytes,blood monocytes,no reaction product
same,Prussian blue staining pattern in HCC surgical sections,[13],the Prussian blue reaction product was easily identified in the tumor cells in stained sections
same,Average percentage of stained tumor cell number 25-50%,[13],7 cases
same,Average percentage of stained tumor cell number <25%,[13],6 cases
same,Average percentage of stained tumor cell number >75%,[13],17 cases
same,Prussian blue stained Huh-7 tumor cells,Huh-7 tumor cells,stained cell number is somewhat a little more than that of SP-94-P-Fe3O4 stained case
same,Prussian blue stained HepG2 tumor cells,HepG2 tumor cells,many tumor cells were stained by a blue reaction product
same,Prussian blue reaction product in tumor cells of hepatoma sections,[14],show in single infiltrating tumor cells
same,Prussian blue reaction product in normal cells of hepatoma sections,[14]; normal cells compressed by tumor cells,the blue reaction products do not show in the normal cells
same,Prussian blue reaction product in tumor cells of NPC biopsy sections,NPC biopsy specimens,the Prussian blue reaction product is easily identified in the tumor cells of stained sections
SP-94-P-Fe3O4 (SFSIIHTPILPL),Prussian blue reaction product in pancreatic cancer sections,[10],all show the reaction products
same,Prussian blue reaction product in hepatoma cell line,[11],blue reaction product
same,Prussian blue staining pattern in HCC surgical sections,[13],the staining pattern was the same as L-P-Fe3O4 staining
same,Average percentage of stained tumor cell number 25-50%,[13],9 cases
same,Average percentage of stained tumor cell number <25%,[13],5 cases
same,Average percentage of stained tumor cell number >75%,[13],16 cases
same,Prussian blue stained HepG2 tumor cells,HepG2 tumor cells,the stained cell number was lower than that of the L-P-Fe3O4 treated case
same,Prussian blue reaction product in tumor cells of hepatoma sections,[14],the Prussian blue products can also be observed in the tumor cells
control peptide (RLLDTNRPLGGG; also: FITC or biotin label),adverse event / visceral organs,HepG2 xenografts,the visceral organs revealed marked apoptotic change
same,tumor growth / xenograft size,HepG2 xenografts,the xenograft size was also decreased
targeted peptide SEQ ID NO: 1: 12 amino acid targeted peptide (L-peptide) obtained from nasopharyngeal carcinoma (RLLDTNRPLLPY),change of tumor cell morphology and behavior,NPC cells,no any specific change of tumor cell morphology and behavior
